Measured values published in patent publication EP0022621A1, “Peptides related to somatostatin, their preparation and pharmaceutical compositions containing them” (ELI LILLY AND COMPANY, priority 1979, dated 1981).
“And” between values parts separate entries of the source, which are not always exact repeats. Equal entries are not always repeated. Positions of bridges follow the written chain, without caps; N, C: chain ends. No end group written: not given here.

Columns and labels:
[1] = tested on: growth hormone (GH) secretion; test: Growth Hormone Inhibition In Rats (pentobarbital-stimulated GH secretion, serum GH by radioimmunoassay); assay type: in vivo; settings: for GH Serum Conc.: male rats, sodium pentobarbital 4 mg/rat I.P., 20 minutes, Mean ± SEM; for % Inhibition: inhibition of GH release compared to saline controls
Procedure: A. Growth Hormone Inhibition In Rats:
This test is a modification of the method of P. Brazeau et al. Endocrinology, 94, 184 (1974). Male rats (weighing 100-110 g.) are divided into three groups of eight rats each. Each rat is administered sodium pentobarbital at a dose of 4 mg/rat (I.P.) to stimulate growth hormone (GH) secretion. Simultaneously, one group of rats receives the test compound (S.C.); the second group receives somatostatin (S.C.); and the third group (control) receives saline (S.C.). Twenty- minutes later, the animals are decapitated and blood samples are collected. The serum concentration of growth hormone (GH) is determined by'radioimmunoassay. The mean GH concentration (+ standard error of the mean) is calculated for each group. The percent inhibition of GH release (as compared to saline controls) is then calculated for the test compound and for somatostatin. When tested as above-described, the peptides of Examples 2, 4, 6, 8 and 10, representative of the peptides of Formula III, gave the results set forth below in Table I: […]

insulin = test: Insulin and Glucagon Inhibition In Dogs (L-alanine stimulation, serum insulin by radioimmunoassay); assay type: in vivo, dog; settings: for Result: inhibition of insulin: fasted dog, L-alanine infusion; for inhibition of secretion of insulin: dog stimulated with L-alanine, dose not stated
Procedure: (§1) B. Insulin and Glucagon Inhibition In Dogs:
(§2) A normal dog is fasted overnight. An intravenous (I.V.) infusion of the test compound (dissolved in saline) is begun. Thirty minutes thereafter an additional infusion of L-alanine (dissolved in saline) is begun and is continued for a total of 15 minutes so that a total dose of about 1 mmole of L-alanine per kg. body weight is given. Infusion of the test compound is continued for an additional 15 minute period.
(§3) Blood samples are taken periodically before (at -20, -10 and -1 minutes) and after (5, 10, 15, 30, 35, 40, 45, 50, 60, 90, 120 and 150 minutes) the start of the infusion of the test compound. The serum insulin and serum glucagon concentrations in the blood are determined by radioimmunoassay. A plot is made of the glucagon and insulin concentrations versus time. The plot obtained from the test compound is compared to plots obtained from somatostatin and saline (controls) in similar experiments.
(§4) Infusion of L-alanine (in the absence of somatostatin or active test compound) causes an abrupt increase in serum insulin and glucagon concentrations. The concentrations return to basal levels after the L-alanine infusion is terminated. Infusion of somatostatin (alone) causes a decrease in basal serum concentrations of insulin and glucagon.

glucagon = test: Insulin and Glucagon Inhibition In Dogs (L-alanine stimulation, serum glucagon by radioimmunoassay); assay type: in vivo, dog; settings: for Result: inhibition of glucagon: fasted dog, L-alanine infusion; for inhibition of secretion of glucagon: dog stimulated with L-alanine, dose not stated
Procedure: as §1, §2, §3, §4

[2] = I.V. infusion dose 0.05 µg/kg/min
[3] = I.V. infusion dose 0.098, 0.181, 0.291 µg/kg/min
[4] = I.V. infusion dose 0.06 µg/kg/min
[5] = I.V. infusion dose 0.20 µg/kg/min
[6] = infusion alone, without L-alanine, dog

| Substance | GH Serum Conc. ([1]; dose 2 µg/kg S.C.) [ng/mL] | GH Serum Conc. ([1]; dose 50 µg/kg S.C.) [ng/mL] | % Inhibition ([1]; dose 2 µg/kg S.C.) [%] | % Inhibition ([1]; dose 50 µg/kg S.C.) | Result: inhibition of insulin (insulin; [2]) | inhibition of secretion of insulin (insulin) | Result: inhibition of glucagon (glucagon; [2]) | inhibition of secretion of glucagon (glucagon) | also measured |
| --- | --- | --- | --- | --- | --- | --- | --- | --- | --- |
| D-Alanyl-glycyl-L-cysteinyl-L-lysyl-D-alanyl-L-phenylalanyl-L-phenylalanyl-D-tryptophyl-L-lysyl-L-threonyl-L-cyclohexylalanyl-L-threonyl-L-seryl-D-cysteine cyclic (3 -> 14) disulfide [Example 4] | 5.5 ± 0.7 | 8.4 ± 3.4 | 95 | 92% | No inhibition of glucagon and insulin | did not inhibit | No inhibition of glucagon and insulin | did not inhibit | – |
| D-Alanyl-glycyl-L-cysteinyl-L-lysyl-D-alanyl-L-phenylalanyl-L-phenylalanyl-D-tryptophyl-L-lysyl-L-threonyl-L-phenylalanyl-L-threonyl-L-seryl-D-cysteine cyclic (3 -> 14) disulfide [Example 2] | 7.1 ± 3.8 | 2.0 ± 0.3 | 94.9 | 98.6% | – | did not inhibit | – | did not inhibit | GH Serum Conc. ([1]; dose 0.25 µg/kg S.C.): 51.0 ± 14.1 ng/mL; GH Serum Conc. ([1]; dose 1 µg/kg S.C.): 30.6 ± 16.0 ng/mL; GH Serum Conc. ([1]; dose 2.5 µg/kg S.C.): 14.8 ± 10.9 ng/mL; GH Serum Conc. ([1]; dose 25 µg/kg S.C.): 2.8 ± 0.2 ng/mL; % Inhibition ([1]; dose 0.25 µg/kg S.C.): 37.4%; % Inhibition ([1]; dose 1 µg/kg S.C.): 79.8%; % Inhibition ([1]; dose 2.5 µg/kg S.C.): 81.8%; % Inhibition ([1]; dose 25 µg/kg S.C.): 98.2%; Result: inhibition of insulin (insulin; [3]): No inhibition of glucagon and insulin; Result: inhibition of glucagon (glucagon; [3]): No inhibition of glucagon and insulin |
| D-Seryl-glycyl-L-cysteinyl-L-lysyl-L-alanyl-L- phenylalanyl-L-phenylalanyl-D-tryptophyl-L-lysyl-L-threonyl-L-cyclohexylalanyl-L-threonyl-L-seryl-D- cysteine cyclic (3 -> 14) disulfide [Example 10] | 68.8 ± 28.2 | 2.2 ± 0.1 | 34 | 98% | – | – | – | – | Result: inhibition of insulin (insulin; [4]): Partial inhibition of glucagon and insulatum.; Result: inhibition of glucagon (glucagon; [4]): Partial inhibition of glucagon and insulatum. |
| D-Seryl-glycyl-L-cysteinyl-L-lysyl-L-alanyl-L-phenylalanyl-L-phenylalanyl-D-tryptophyl-L-lysyl-L-threonyl-D-phenylalanyl-L-threonyl-L-seryl-D-cysteine cyclic (3 -> 14) 4isulfide [Example 8] | 79.6 ± 36.2 | 40.0 ± 13.4 | 0 | 39% | – | did not inhibit | – | did not inhibit | Result: inhibition of insulin (insulin; [5]): No inhibition of glucagon and insulin; Result: inhibition of glucagon (glucagon; [5]): No inhibition of glucagon and insulin |
| D-Seryl-glycyl-L-cysteinyl-L-lysyl-L-alanyl-L-phenylalanyl-L-phenylalanyl-D-tryptophyl-L-lysyl-L-threonyl-L-phenylalanyl-L-threonyl-L-seryl-D-cysteine cyclic (3 -> 14) disulfide [Example 6] | 15.5 ± 5.4 | 4.0 ± 0.5 | 79 | 95% | Significant inhibition of glucagon and insulin | – | Significant inhibition of glucagon and insulin | – | – |
| Somatostatin (AGCKNFFWKTFTSC; disulfide 3-14 (inferred); ends not checked; UniProt P61278 103-116, looked up) [reference compound] | – | – | – | 86.7% and 52.5% and 57.9% and 91% and 93% and 64% and 98% | – | inhibits the increase | – | inhibits the increase | basal serum concentration of insulin (insulin; [6]): decrease; basal serum concentration of glucagon (glucagon; [6]): decrease |
